Data published in patent publication US20250163016A1, “PYRIDINE DERIVATIVE, PREPARATION METHOD THEREFOR AND USE THEREOF” (CHENGDU EASTON BIOPHARMACEUTICALS CO., LTD., priority 2022, published 2025).
pIC50: −log10 of the molar value.

Tests used:
Kasumi-1 cells = assay: Kasumi-1 cell proliferation inhibition test (Celltiter GLO); type: cell-based; details: Homo sapiens, 168 h, Kasumi-1, 7 days culture
Method: Research had confirmed that LSD1 played a crucial role in the occurrence process of various types of cancers, including small cell lung cancer (SCLC) and acute myeloid leukemia (AML). Therefore, a human acute myeloid leukemia (Kasumi-1) cell line was used to determine the ATP content in cells at different drug concentrations using a Celltiter GLO assay kit, the cell activity was reflected by luminescence intensity, and IC50 values of different compounds on Kasumi-1 cells were calculated using inhibition rates. The inhibitory effects of the compounds in the present application on the proliferation of Kasumi-1 cells were studied to evaluate the anti-tumor efficacy of the tested compounds at the cellular level.
• Day 1 Cells were seeded into the 384-well cell culture plate and placed in a 37° C. 5% CO2 cell incubator to be cultured overnight. • Day 0 The compound to be tested was prepared into a 10 mM mother liquid using DMSO, starting from […], diluted by 3 folds, with 10 concentration points and double duplicate wells. A diluted compound was added into the 384-well cell culture plate and placed in a 37° C. 5% CO2 cell incubator to be cultured for 7 days. The concentration of the DMSO in a cell culture system was 0.1 vol %. • Day 7 Celltiter GLO was added into the 384-well cell culture plate according to a volume ratio of culture system:Celltiter GLO=1:1, light-shielded oscillation was carried out on a plate oscillator for 3 min, then the cell culture plate was placed at the room temperature for 30 min with light shielded, and the plate was read using a multifunctional microplate reader chemical light emitting module.
An inhibition rate was calculated by utilizing luminescence intensity of the above DMSO group (with DMSO added), test group (with the tested compound or a positive control solution added) and blank group (not treating cells), and a calculation formula was as follows: […]
Using a logarithm of the concentration as an X axis and the percentage inhibition rate as a Y axis, a dose-response curve was fitted using a formula log(inhibitor) vs. response-Variable slope (Four parameters) of analysis software Graphpad Prism 8 to obtain the IC50 value of each compound on Kasumi-1 proliferation inhibition activity.

hERG ion channel = biological target: T1, hERG ion channel (Homo sapiens, UniProt Q12809); assay: In-vitro hERG inhibitory activity (whole cell patch clamp, HEK293 cells); type: cell-based; details: HEK293 cells stably expressing hERG channels, read-out: IC50 on hERG current
T1 construct: expressed in transfected cells; host or cells: HEK293
T1 sequence (Q12809 whole entry): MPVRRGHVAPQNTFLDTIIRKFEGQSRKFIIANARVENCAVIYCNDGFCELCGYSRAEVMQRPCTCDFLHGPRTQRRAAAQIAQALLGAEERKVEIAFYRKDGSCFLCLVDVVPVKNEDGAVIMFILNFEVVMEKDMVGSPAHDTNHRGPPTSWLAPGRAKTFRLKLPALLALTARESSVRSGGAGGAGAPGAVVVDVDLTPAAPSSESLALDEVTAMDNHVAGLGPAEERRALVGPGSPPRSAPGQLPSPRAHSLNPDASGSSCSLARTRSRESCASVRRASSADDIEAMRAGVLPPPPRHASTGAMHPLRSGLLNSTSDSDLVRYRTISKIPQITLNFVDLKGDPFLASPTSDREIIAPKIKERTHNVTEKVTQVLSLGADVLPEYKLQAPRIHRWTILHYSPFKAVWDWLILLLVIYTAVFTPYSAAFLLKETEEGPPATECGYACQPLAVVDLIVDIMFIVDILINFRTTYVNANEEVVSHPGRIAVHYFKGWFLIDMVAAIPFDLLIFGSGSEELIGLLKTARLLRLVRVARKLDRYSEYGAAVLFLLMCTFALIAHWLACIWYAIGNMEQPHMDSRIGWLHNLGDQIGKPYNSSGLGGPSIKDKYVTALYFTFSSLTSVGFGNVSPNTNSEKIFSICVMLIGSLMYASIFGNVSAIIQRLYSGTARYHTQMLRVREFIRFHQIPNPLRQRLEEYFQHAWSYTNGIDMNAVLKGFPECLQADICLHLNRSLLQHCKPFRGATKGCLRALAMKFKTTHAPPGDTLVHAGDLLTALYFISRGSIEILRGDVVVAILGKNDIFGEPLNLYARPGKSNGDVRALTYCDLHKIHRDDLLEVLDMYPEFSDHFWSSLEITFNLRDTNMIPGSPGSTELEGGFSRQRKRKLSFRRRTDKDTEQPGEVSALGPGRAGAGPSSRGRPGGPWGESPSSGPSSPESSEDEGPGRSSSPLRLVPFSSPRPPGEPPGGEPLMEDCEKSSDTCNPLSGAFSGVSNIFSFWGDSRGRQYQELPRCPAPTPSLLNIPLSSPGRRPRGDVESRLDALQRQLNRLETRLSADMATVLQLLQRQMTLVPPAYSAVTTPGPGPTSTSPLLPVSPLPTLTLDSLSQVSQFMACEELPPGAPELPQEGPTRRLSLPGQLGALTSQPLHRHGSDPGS
Method: A whole cell sheet technology was used to detect the blocking effects of compounds on hERG channels on HEK293 cells stably expressing hERG channels, and a median inhibitory concentration IC50 of the compound was determined. As part of cardiac safety evaluation, its safety in-vitro screening for cardiac toxicity was preliminarily evaluated.
• HEK293 cells stably expressing hEGR ion channels
Electrodes were drawn using PC-10 (Narishige, Japan). The whole cell patch clamp was used for recording, and noise was filtered using one fifth of a sampling frequency. The cells were clamped at −80 mV, then depolarized to 40 mV using square waves lasting for 4 seconds, and then hyperpolarized to −40 mV using square waves lasting for 2 seconds to obtain an hERG tail current. This procedure was repeated every 20 seconds. The hERG tail current was a pure hERG current. A maximum current triggered by the second square wave was detected, after the maximum current was stable, the compounds were tested through perfusion, and after reaction was stable, a blocking intensity was calculated.

COc1ccc(-c2c(-c3ccc(C#N)c(F)c3)nc(N3CCC(N)CC3)n(C)c2=O)cc1F [CC-90011, reference compound]
pIC50 (Kasumi-1 cells): 8.50

CC(C)(O)Cn1ncc2cc(-c3c(C#N)cc(N4CCC(N)CC4)nc3-c3ccc(C#N)c(F)c3)c(F)cc21 [Compound 16, 6-(4-aminopiperid-1-yl)-2-(4-cyano-3-fluorophenyl)-3-(6-fluoro-1-(2-hydroxyl-2-methylpropyl)-1H-indazol-5-yl)isonicotinonitrile]
pIC50 (Kasumi-1 cells): 9.23
pIC50 (hERG ion channel): < 5.00
